Laboratory results: patent US6534039B2, “Extended organic cobalt and nickel magnetic complexes” (priority 2000, dated 2003)

How the values were obtained:
[1] = system: brain tumor (N32 and F98); test: MRI of brain tumors in rats with contrast agent; format: in vivo, rat
From the text: Rats were implanted with tumors by stereotactic infusion of tumor cells into the brain.
Various MRI imaging modes were used in the analysis: T1-weighted, T2-weighted, and T2*-weighted.
Rats weighing about 350 g, seeded with either F98 or N32 cells were used for tumor imaging. A<0.5 mm burr hole was drilled through the skull of the anesthetized rats at the point of inoculation. Tumors were initiated by inoculating one microliter of culture medium, containing 10,000 cultured cells, 4-5 mm deep into the left striatum, at a point 4 mm to the left of the midline in the (serrated) coronal suture. A 27-gauge needle fitted with a depth-limiting plastic collar to ensure cell injection 4-5 mm beneath the skull was connected to a Hamilton microsyringe via flexible tubing. Following a 30-second infusion of the cells, another 30 seconds was taken to allow the cells to settle before removing the needle. For F98 tumor animals, death ensued 24+ days after inoculation.
MRI was performed at day 16 after tumor cell implantation. […] The rats were immediately positioned on a support and MRI was performed in a 1.5 tesla whole-body clinical scanner (Siemens Vision, Germany) with a human extremity (knee) coil. High-resolution turbo spin-echo sagittal imaging was used for selecting slice position with imaging parameters as follows. […]

[2] = rat, in vivo, ip
[3] = system: regions of wound healing; test: Wound healing delineation by MRI; format: in vivo, rat; details: site opened two weeks prior for injecting tumor cells
Protocol: MRI was performed at day 16 after tumor cell implantation. The animals were anesthetized and injected interperitoneally with either 200 microliters of gadodiamide (287 mg gadodiamide/ml) (Omniscan, Nycomed, Princeton, N.J.) or 200 microliters of the extended cobalt complex (containing 10 mg Co/ml ±30%). The rats were immediately positioned on a support and MRI was performed in a 1.5 tesla whole-body clinical scanner (Siemens Vision, Germany) with a human extremity (knee) coil. High-resolution turbo spin-echo sagittal imaging was used for selecting slice position with imaging parameters as follows. For T2 weighted images: repetition time (TR)=3000 msec; echo time (TE)=25 msec; field of view (FOV)=100×100 mm; matrix size=256×256; image slice thickness (TH)=2 mm. Tumor images were collected at various times after a single interperitoneal injection. Imaging times were 3 min/scan and resolution was […]. Imaging covered a 30 min period after injection.
This is surprising as the vasculature and components of a wounded region differ from normal tissue only subtly, and these differences are not highlighted by the gadodiamide reagent. This type of imaging can be used to detect internal damage, internal bleeding, or other forms of lesions with MRI using the cobalt complex as contrast agent.
Methods were performed as in Example 8.

In the case of CNC(=O)CN(CCN(CCN(CC(=O)[O-])CC(=O)NC)CC(=O)[O-])CC(=O)[O-].[Gd+3] [gadodiamide], the “tumor visibility in all MRI imaging modes” value ([1]; T1-weighted, T2-weighted and T2*-weighted) was “no trace of any tumors was evident”, the “enhancement / imaging of brain tumor by MRI” value ([1]; rats with N32 or F98 tumor, 200 microliters interperitoneally, 1.5 tesla) was “No enhancement” and the “ALBm (albumen)” value [2] was 1.5 g/dL. The “ALP (alkaline phosphatase)” value [2] was 202 IU/L, the “ALT (alanine transaminase)” value [2] was 62 IU/L and the “AST (aspartate transaminase)” value [2] was 183 IU/L. The “BUNm (blood urea nitrogen)” value [2] was 16 mg/dL, the “CK (creatine kinase)” value [2] was 820 IU/L and the “CL (chloride)” value [2] was 101 mEq/L. For the same molecule, the “CO2 (carbon dioxide)” value [2] was 30 mEq/L, the “GLUCm (glucose)” value [2] was 177 mg/dL and the “K (potassium)” value [2] was 5.5 mEq/L. For the same molecule, the “NA (sodium)” value [2] was 139 mEq/L, the “liver enzyme activity compared to the control” value [2] was “slight increase” and the “image contrast at wound site by MRI” value [3] was “No such contrast was evident”.
